Source: ChEMBL document CHEMBL3407427, “Discovery of efficacious Pseudomonas aeruginosa-targeted siderophore-conjugated monocarbams by application of a semi-mechanistic pharmacokinetic/pharmacodynamic model” (J Med Chem, 2015)
In brackets after ≈: the same amount, converted by molar mass.

Assays:
Pseudomonas aeruginosa [1] = experiment: Inhibition of Pseudomonas aeruginosa PBP3 acylation activity by BOCILLIN FL-based assay
Pseudomonas aeruginosa [2] = experiment: Antimicrobial activity against Pseudomonas aeruginosa PAO1 ARC545 by broth microdilution method; type: functional
[3] = Half life in PBS buffer in pH 7.4 by UPLC analysis; type: ADME
[4] = Percentage unbound in human plasma at 10 uM after 16 hrs by LC-MS/MS analysis
Pseudomonas aeruginosa [5] = experiment: Antimicrobial activity against MexABCDXY-deficient Pseudomonas aeruginosa PAO1 ARC546 by broth microdilution method; type: functional
[6] = Plasma protein binding in Wistar Han rat as percentage unbound
Klebsiella pneumoniae = experiment: Antimicrobial activity against Klebsiella pneumoniae by broth microdilution method; type: functional
Acinetobacter baumannii = experiment: Antimicrobial activity against Acinetobacter baumannii by broth microdilution method; type: functional
[7] = Half life in Wistar Han rat at 1 mg/kg, iv infusion; type: ADME, organism-based; parameters: dose 1 mg/kg, route intravenous; details: in vivo
[8] = Volume of distribution at steady state in Wistar Han rat at 1 mg/kg, iv infusion; type: ADME, organism-based; parameters: dose 1 mg/kg, route intravenous; details: in vivo, read-out: Vdss
Escherichia coli = experiment: Antimicrobial activity against Escherichia coli by broth microdilution method; type: functional
[9] = Clearance in Wistar Han rat at 1 mg/kg, iv infusion; type: ADME, organism-based; parameters: dose 1 mg/kg, route intravenous; details: in vivo
Pseudomonas aeruginosa [10] = experiment: Antimicrobial activity against Pseudomonas aeruginosa by broth microdilution method; type: functional

| SMILES | Kinact (Pseudomonas aeruginosa [1]) | MIC (Pseudomonas aeruginosa [2]) | half-life [3] | fraction unbound at 16 h, 10 µM [4] | MIC (Pseudomonas aeruginosa [5]) | fraction unbound [6] | MIC90 (Klebsiella pneumoniae) | MIC90 (Acinetobacter baumannii) | half-life [7] | Vd [8] | MIC90 (Escherichia coli) | clearance [9] | MIC90 (Pseudomonas aeruginosa [10]) |
| --- | --- | --- | --- | --- | --- | --- | --- | --- | --- | --- | --- | --- | --- |
| C[C@H]1[C@H](NC(=O)/C(=N\OC(C)(C)C(=O)O)c2csc(N)n2)C(=O)N1C(=O)NS(=O)(=O)N1C[C@@H](NC(=O)[C@H](CN)NC(=O)c2cc(=O)c(O)c[nH]2)CC1=O | 9.4 ×10³ /M/s | 4 µg/mL (≈ 5.1 µM) | 51 h | 0.18 | 0.5 µg/mL (≈ 0.638 µM) |  |  |  |  |  |  |  |  |
| C[C@H]1[C@H](NC(=O)/C(=N\OC(C)(C)C(=O)O)c2csc(N)n2)C(=O)N1C(=O)NS(=O)(=O)N1C[C@@H](NC(=O)[C@@H]2CCCN2C(=O)c2cc(=O)c(O)c[nH]2)CC1=O | 1.4 ×10⁴ /M/s | 8 µg/mL (≈ 10.1 µM) | 114 h | 0.28 | 0.5 µg/mL (≈ 0.629 µM) |  |  |  |  |  |  |  |  |
| C[C@H]1[C@H](NC(=O)/C(=N\OC(C)(C)C(=O)O)c2csc(N)n2)C(=O)N1C(=O)NS(=O)(=O)N1C[C@@H](NC(=O)[C@H](CC(=O)O)NC(=O)c2cc(=O)c(O)c[nH]2)CC1=O | 3.8 ×10⁴ /M/s | 1 µg/mL (≈ 1.23 µM) | > 150 h | 0.14 | 0.5 µg/mL (≈ 0.615 µM) |  |  |  |  |  |  |  |  |
| C[C@H]1[C@H](NC(=O)/C(=N\OC(C)(C)C(=O)O)c2csc(N)n2)C(=O)N1C(=O)NS(=O)(=O)N1C[C@H](NC(=O)c2cc(=O)c(O)c[nH]2)CC1=O | 3.5 ×10⁵ /M/s | 0.5 µg/mL (≈ 0.717 µM) | > 150 h | 0.25 | < 0.06 µg/mL |  |  |  |  |  |  |  |  |
| C[C@H]1[C@H](NC(=O)/C(=N\OC(C)(C)C(=O)O)c2csc(N)n2)C(=O)N1C(=O)NS(=O)(=O)N1CCN(C(=O)c2cc(=O)c(O)c[nH]2)N(C)C1=O | 2.6 ×10⁴ /M/s | 1 µg/mL (≈ 1.4 µM) | 38 h | 0.14 | < 0.06 µg/mL | 0.15 | 64 µg/mL (≈ 89.8 µM) | > 128 µg/mL | 0.37 h | 0.42 L/kg | 64 µg/mL (≈ 89.8 µM) | 12 mL/min/kg | 2 µg/mL (≈ 2.81 µM) |
| CC(C)(O/N=C(\C(=O)NC1CN(C(=O)NS(=O)(=O)N2CCN(NC(=O)c3cc(=O)c(O)c[nH]3)C2=O)C1=O)c1csc(N)n1)C(=O)O (stereo unspecified) [PIRAZMONAM] | 1.4 ×10⁵ /M/s | 0.25 µg/mL (≈ 0.365 µM) | 41 h | 0.29 | 0.06 µg/mL (≈ 0.0876 µM) |  |  |  |  |  |  |  |  |
| C[C@H]1[C@H](NC(=O)/C(=N\OC(C)(C)C(=O)O)c2csc(N)n2)C(=O)N1C(=O)NS(=O)(=O)N1C[C@@H](NC(=O)CNC(=O)c2cc(=O)c(O)c[nH]2)CC1=O | 2.4 ×10⁴ /M/s | 2 µg/mL (≈ 2.65 µM) | > 150 h | 0.38 | 0.25 µg/mL (≈ 0.331 µM) |  |  |  |  |  |  |  |  |
| C[C@H]1[C@H](NC(=O)/C(=N\OC(C)(C)C(=O)O)c2csc(N)n2)C(=O)N1C(=O)NS(=O)(=O)N1C[C@@H](NC(=O)NCc2cc(=O)c(O)cn2O)CC1=O | 5.9 ×10⁴ /M/s | 0.5 µg/mL (≈ 0.673 µM) | 87 h | 0.26 | < 0.06 µg/mL | 0.29 | 32 µg/mL (≈ 43.1 µM) | > 128 µg/mL | 0.49 h | 0.29 L/kg | 16 µg/mL (≈ 21.5 µM) | 9 mL/min/kg | 2 µg/mL (≈ 2.69 µM) |
| C[C@H]1[C@H](NC(=O)/C(=N\OCC(=O)O)c2csc(N)n2)C(=O)N1C(=O)NS(=O)(=O)N1C[C@@H](NC(=O)NCc2cc(=O)c(O)cn2O)CC1=O | 3.4 ×10³ /M/s | 4 µg/mL (≈ 5.6 µM) | 87 h | 0.26 | 0.13 µg/mL (≈ 0.182 µM) |  |  |  |  |  |  |  |  |
| C[C@H]1[C@H](NC(=O)/C(=N\OC(C)(C)C(=O)O)c2csc(N)n2)C(=O)N1C(=O)NS(=O)(=O)N1C[C@@H](n2cc(-c3cc(=O)c(O)c[nH]3)nn2)CC1=O | 2.3 ×10⁵ /M/s | 4 µg/mL (≈ 5.54 µM) | 117 h | 0.31 | < 0.06 µg/mL |  |  |  |  |  |  |  |  |
| C[C@H]1[C@H](NC(=O)/C(=N\OC(C)(C)C(=O)O)c2csc(N)n2)C(=O)N1C(=O)NS(=O)(=O)NCc1cc(=O)c(O)c[nH]1 | 2.5 ×10⁴ /M/s | 8 µg/mL (≈ 13.3 µM) | > 150 h | 0.61 | < 0.06 µg/mL |  |  |  |  |  |  |  |  |
| C[C@H]1[C@H](NC(=O)/C(=N\OC(C)(C)C(=O)O)c2csc(N)n2)C(=O)N1C(=O)NS(=O)(=O)N1CC[C@H](NC(=O)c2cc(=O)c(O)c[nH]2)C1 | 4.6 ×10⁴ /M/s | 1 µg/mL (≈ 1.46 µM) | > 150 h | 0.33 | < 0.06 µg/mL |  |  |  |  |  |  |  |  |
| C[C@H]1[C@H](NC(=O)/C(=N\OC(C)(C)C(=O)O)c2csc(N)n2)C(=O)N1C(=O)NS(=O)(=O)N1C[C@@H](NC(=O)CNC(=O)c2cc(=O)c(O)cn2O)CC1=O | 1 ×10⁵ /M/s | 0.5 µg/mL (≈ 0.649 µM) | > 150 h | 0.45 | < 0.06 µg/mL |  |  |  |  |  |  |  |  |
| C[C@H]1[C@H](NC(=O)/C(=N\OC(C)(C)C(=O)O)c2csc(N)n2)C(=O)N1C(=O)NS(=O)(=O)N1C[C@@H](NC(=O)[C@H](CCS(C)(=O)=O)NC(=O)c2cc(=O)c(O)c[nH]2)CC1=O | 1.8 ×10⁴ /M/s | 4 µg/mL (≈ 4.65 µM) | > 150 h | 0.21 | 0.25 µg/mL (≈ 0.29 µM) |  |  |  |  |  |  |  |  |
